What is called IC50 is the concentration that gives 50% inhibition.

The structures appear in SMILES notation. A value given as a limit tells only on which side of the number the result lay.

Test [1] relates to apolipoprotein(a), [apo(a)], apolipoproteinB-100, [apoB-100], coupling reaction that generates Lp(a). Put plainly: LPABC screen: lipoprotein(a) biochemical coupling assay, Lp(a) by ELISA. The following applies: recombinant apo(a) + HepG2 conditioned media, 67 minutes, 37° C.; ^a = multiple tests. An excerpt:
The lipoprotein(a), [Lp(a)], biochemical coupling assay (LPABC) is used to characterize inhibitors of the apolipoprotein(a), [apo(a)], apolipoproteinB-100, [apoB-100], coupling reaction that generates Lp(a).
Protocol Conditioned media from 293 cells (ATCC CRL-1573), permanently transfected with an apo(a) 17-kringle cDNA expression construct (pcDNA-AMP, In Vitrogen, Carlsbad, Calif.) using standard molecular biology techniques, was used as a source of recombinant apo(a). The 293 cell conditioned media containing the recombinant apo(a) is diluted 1:3 with phosphate buffered saline (PBS) and 90 μL is pipetted into each well of a 96-well plate and placed into a 37° C. incubator for 10 minutes. Twenty microliters of a 0.3 to 50 μM solution of a compound of the present invention in PBS is added to the warmed plate. Ninety microliters of HepG2 (ATCC HB-8065) cell conditioned media diluted 1:3 with PBS is added to the apo(a)/compound mixture and mixed by pipetting up and down 5 times. The reaction is incubated for 67 minutes in a 37° C. incubator. A 100 μL aliquot of the reaction is removed and assayed for its Lp(a) content by an enzyme linked immunosorbent assay (ELISA).
Background: In an ELISA, binding on a coated surface is turned into a signal by an enzyme label.

Test [2] has as its system Lp(a) production (HepG2^K17 cells). The test can be described thus: LPA3 screen: inhibition of Lp(a) production in HepG2^K17 cells, Lp(a) by ELISA. Type of test: cell-based. To be noted: 8 h, Lp(a) normalized for total protein, ^a = multiple tests. The procedure:
The LPA3 screen is used to identify compounds that inhibit Lp(a) production. This screen employs permanently transfected HepG2 cells (HepG2^K17) that are generated using an apo(a) 17-kringle cDNA expression construct (pcDNA-AMP, In Vitrogen, Carlsbad, Calif.) in accordance with methods that are well-known in molecular biology.
HepG2^K17 cells are seeded in 96-well plates at a density of 75,000 cells per well in 0.25 mL of Dulbecco's Modified Eagle Media (DMEM) containing 10% fetal bovine serum (FBS). Seeded plates are incubated overnight in a 37° C., 5% CO2 /95% […] incubator. The media is removed, replaced with (1) fresh media, or (2) fresh media plus 0.3 to 50 μM of a compound of the present invention in 20 μL of PBS, and the plates returned to the incubator for 8 hours. After the additional 8 hours of incubation, Lp(a) is assayed in the media by ELISA. Cells are digested with 0.5N NaOH overnight and assayed for total protein. Lp(a) values are normalized for total protein content.

As to `CCOC(=O)C(NCc1cccc([N+](=O)[O-])c1)c1cc(C(C)(C)C)c(O)c(C(C)(C)C)c1` (stereo not shown) [Example 50, (3,5-Di-tert-butyl-4-hydroxy-phenyl)-(3-nitro-benzylamino)-acetic acid ethyl ester], the IC50 in test [1] is 46.7 µM; in test [2] it was greater than 74 µM.
The matching figures for `CCOC(=O)C(c1cc(C(C)(C)C)c(O)c(C(C)(C)C)c1)N1CCOCC1` (stereo not shown) [Example 54, (3,5-Di-tert-butyl-4-hydroxy-phenyl)-(N-morpholinyl)-acetic acid ethyl ester]: 0.8 µM and 1.3 µM.
The matching figures for `CCOC(=O)C(NCc1ccc(Cl)cc1Cl)c1cc(C(C)(C)C)c(O)c(C(C)(C)C)c1` (stereo not shown) [Example 36, (3,5-Di-tert-butyl-4-hydroxy-phenyl)-(2,4-dichloro-benzylamino)-acetic acid ethyl ester]: 47.9 µM and greater than 74 µM.
The matching figures for `CCOC(=O)C(NCc1cccnc1)c1cc(C(C)(C)C)c(O)c(C(C)(C)C)c1` (stereo not shown) [Example 2, (3,5-Di-tert-butyl-4-hydroxy-phenyl)-[(pyridin-3-ylmethyl)-amino]-acetic acid ethyl ester]: 10 µM and 20 µM.
As to `CCOC(=O)C(NCc1ccc(OC)cc1)c1cc(C(C)(C)C)c(O)c(C(C)(C)C)c1` (stereo not shown) [Example 32, (3,5-Di-tert-butyl-4-hydroxy-phenyl)-(4-methoxy-benzylamino)-acetic acid ethyl ester], the IC50 in test [1] is 29.6 µM; in test [2] it was greater than 74 µM.
The matching figures for `CCOC(=O)C(NCc1ccsc1)c1cc(C(C)(C)C)c(O)c(C(C)(C)C)c1` (stereo not shown) [Example 46, (3,5-Di-tert-butyl-4-hydroxy-phenyl)-[(thiophen-3-ylmethyl)-amino]-acetic acid ethyl ester]: 34.5 µM and greater than 74 µM.
The matching figures for `CCOC(=O)C(Nc1cccnc1)c1cc(C(C)(C)C)c(O)c(C(C)(C)C)c1` (stereo not shown) [Example 1, (3,5-Di-tert-butyl-4-hydroxy-phenyl)-[(pyridin-3-yl)-amino]-acetic acid ethyl ester]: 6.48 µM and 7.6 µM.
The matching figures for `CCOC(=O)C(NCc1ccccc1)c1cc(C(C)(C)C)c(O)c(C(C)(C)C)c1` (stereo not shown) [Example 5, Benzylamino-(3,5-di-tert-butyl-4-hydroxy-phenyl)-acetic acid ethyl ester]: 10.3 µM and 76 µM.
As to `CCOC(=O)C(NCc1cccc(C(F)(F)F)c1)c1cc(C(C)(C)C)c(O)c(C(C)(C)C)c1` (stereo not shown) [Example 48, (3,5-Di-tert-butyl-4-hydroxy-phenyl)-(3-trifluoromethyl-benzylamino)-acetic acid ethyl ester], the values for the IC50 in test [1] and in test [2] were 53.9 µM and greater than 74 µM, respectively.
The matching figures for `CCOC(=O)C(NCC1CCCCC1)c1cc(C(C)(C)C)c(O)c(C(C)(C)C)c1` (stereo not shown) [Example 6, (Cyclohexylmethyl-amino)-(3,5-di-tert-butyl-4-hydroxy-phenyl)-acetic acid ethyl ester]: 6.52 µM and greater than 74 µM.
The matching figures for `CCOC(=O)C(NCc1cc(OC)c(OC)c(OC)c1)c1cc(C(C)(C)C)c(O)c(C(C)(C)C)c1` (stereo not shown) [Example 15, (3,5-Di-tert-butyl-4-hydroxy-phenyl)-(3,4,5-trimethoxy-benzylamino)-acetic acid ethyl ester]: 10.3 µM and 4.6 µM.
The matching figures for `CCOC(=O)C(NCc1ccccc1C(F)(F)F)c1cc(C(C)(C)C)c(O)c(C(C)(C)C)c1` (stereo not shown) [Example 47, (3,5-Di-tert-butyl-4-hydroxy-phenyl)-(2-trifluoromethyl-benzylamino)-acetic acid ethyl ester]: 33.4 µM and greater than 74 µM.
As to `CCOC(=O)C(NCc1ccccn1)c1cc(C(C)(C)C)c(O)c(C(C)(C)C)c1` (stereo not shown) [Example 4], the figures for the IC50 in test [1] and in test [2] were 6.48 µM and 9.1 µM, respectively.
The matching figures for `CCOC(=O)C(NCc1ccncc1)c1cc(C(C)(C)C)c(O)c(C(C)(C)C)c1` (stereo not shown) [Example 3, (3,5-Di-tert-butyl-4-hydroxy-phenyl)-[(pyridin-4-ylmethyl)-amino]-acetic acid ethyl ester]: 7.27 µM and 25.4 µM.

These data come from patent US6017918A, “Phenyl glycine compounds and methods of treating atherosclerosis and restenosis” (Warner-Lambert Company, priority 1999, dated 2000).
